These results are taken from patent publication US20240018158A1, “BRM TARGETING COMPOUNDS AND ASSOCIATED METHODS OF USE” (Prelude Therapeutics Incorporated, priority 2020, published 2024).

One may read the DC50 as the concentration giving 50% degradation.

One experiment addresses SMARCA4 (Homo sapiens (Human), UniProt P51532). Nature of the experiment: SMARCA4 HiBiT degradation assay in HeLa cells. The note with it: 18 hours; for DC50: read-out: DC50 (SM4-HeLa) SMARCA4 degradation potency; for Dmax: HeLa, read-out: Dmax % (SM4-HeLa) maximum SMARCA4 degradation within the concentrations tested. It is filed as cell-based. The essentials:
(§1)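 HeLa monoclonal lines carrying a heterozygous HiBiT knock-in on SMARCA2 or SMARCA4 were seeded at 2500 cells/well in EMEM with 10% FBS. After 18 h compound exposure at 37 °C, Nano-Glo HiBiT lytic detection ran 30-60 min at RT before the luminescence read. Values are from curve fits.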
(In general: The HiBiT peptide binds its large partner to form an active luciferase.)

The target of another experiment is SMARCA2 (Homo sapiens (Human), UniProt P51531). The experiment in a line: SMARCA2 HiBiT degradation assay in HeLa cells. It is filed as cell-based. The following applies: 18 hours; for DC50: read-out: DC50 (SM2-HeLa) SMARCA2 degradation potency; for Dmax: read-out: Dmax % (SM2-HeLa) maximum SMARCA2 degradation within the concentrations tested. The essentials: as §1
Sequence of SMARCA2 (P51531 whole entry): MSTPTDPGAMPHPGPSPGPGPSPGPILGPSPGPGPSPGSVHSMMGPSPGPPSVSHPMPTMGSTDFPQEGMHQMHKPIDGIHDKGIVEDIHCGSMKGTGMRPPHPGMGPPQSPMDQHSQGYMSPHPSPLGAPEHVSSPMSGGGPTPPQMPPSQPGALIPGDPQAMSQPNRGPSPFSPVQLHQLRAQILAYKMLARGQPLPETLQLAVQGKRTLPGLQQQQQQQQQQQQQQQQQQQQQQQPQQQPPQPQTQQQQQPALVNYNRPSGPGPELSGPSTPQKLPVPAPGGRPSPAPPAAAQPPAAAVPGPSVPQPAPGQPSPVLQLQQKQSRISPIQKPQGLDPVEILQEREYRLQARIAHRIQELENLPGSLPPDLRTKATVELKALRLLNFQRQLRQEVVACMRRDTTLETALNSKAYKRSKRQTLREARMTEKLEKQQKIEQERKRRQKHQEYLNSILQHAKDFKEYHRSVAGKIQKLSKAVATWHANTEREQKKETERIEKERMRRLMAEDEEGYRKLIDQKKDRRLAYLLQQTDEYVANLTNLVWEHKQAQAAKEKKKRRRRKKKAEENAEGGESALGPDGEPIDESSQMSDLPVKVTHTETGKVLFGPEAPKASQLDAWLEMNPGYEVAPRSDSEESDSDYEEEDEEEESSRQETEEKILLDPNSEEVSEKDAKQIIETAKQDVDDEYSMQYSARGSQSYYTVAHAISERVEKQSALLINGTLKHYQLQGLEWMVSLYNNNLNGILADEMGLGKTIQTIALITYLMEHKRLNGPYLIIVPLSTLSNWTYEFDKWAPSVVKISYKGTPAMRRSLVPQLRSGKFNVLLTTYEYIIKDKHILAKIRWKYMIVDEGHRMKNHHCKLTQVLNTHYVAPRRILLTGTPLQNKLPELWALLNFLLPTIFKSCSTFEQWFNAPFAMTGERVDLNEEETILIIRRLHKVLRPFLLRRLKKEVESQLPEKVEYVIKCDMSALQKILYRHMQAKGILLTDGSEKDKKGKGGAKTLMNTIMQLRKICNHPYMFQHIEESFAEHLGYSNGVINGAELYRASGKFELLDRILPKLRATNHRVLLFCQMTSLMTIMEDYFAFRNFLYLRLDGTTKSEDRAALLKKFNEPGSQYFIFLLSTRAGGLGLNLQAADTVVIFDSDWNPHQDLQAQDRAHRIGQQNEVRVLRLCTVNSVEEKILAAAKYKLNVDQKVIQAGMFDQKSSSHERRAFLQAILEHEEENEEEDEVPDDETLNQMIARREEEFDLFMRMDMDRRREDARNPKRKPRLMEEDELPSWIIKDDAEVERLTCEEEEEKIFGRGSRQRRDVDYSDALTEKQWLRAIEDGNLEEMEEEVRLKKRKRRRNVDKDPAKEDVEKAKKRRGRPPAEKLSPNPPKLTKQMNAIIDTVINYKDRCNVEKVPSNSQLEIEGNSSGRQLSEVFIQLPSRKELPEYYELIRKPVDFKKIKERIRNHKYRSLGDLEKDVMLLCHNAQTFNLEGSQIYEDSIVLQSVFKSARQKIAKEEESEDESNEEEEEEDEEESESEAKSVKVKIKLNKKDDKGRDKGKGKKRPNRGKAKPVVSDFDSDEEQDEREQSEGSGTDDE

Sequence of SMARCA4 (P51532 whole entry): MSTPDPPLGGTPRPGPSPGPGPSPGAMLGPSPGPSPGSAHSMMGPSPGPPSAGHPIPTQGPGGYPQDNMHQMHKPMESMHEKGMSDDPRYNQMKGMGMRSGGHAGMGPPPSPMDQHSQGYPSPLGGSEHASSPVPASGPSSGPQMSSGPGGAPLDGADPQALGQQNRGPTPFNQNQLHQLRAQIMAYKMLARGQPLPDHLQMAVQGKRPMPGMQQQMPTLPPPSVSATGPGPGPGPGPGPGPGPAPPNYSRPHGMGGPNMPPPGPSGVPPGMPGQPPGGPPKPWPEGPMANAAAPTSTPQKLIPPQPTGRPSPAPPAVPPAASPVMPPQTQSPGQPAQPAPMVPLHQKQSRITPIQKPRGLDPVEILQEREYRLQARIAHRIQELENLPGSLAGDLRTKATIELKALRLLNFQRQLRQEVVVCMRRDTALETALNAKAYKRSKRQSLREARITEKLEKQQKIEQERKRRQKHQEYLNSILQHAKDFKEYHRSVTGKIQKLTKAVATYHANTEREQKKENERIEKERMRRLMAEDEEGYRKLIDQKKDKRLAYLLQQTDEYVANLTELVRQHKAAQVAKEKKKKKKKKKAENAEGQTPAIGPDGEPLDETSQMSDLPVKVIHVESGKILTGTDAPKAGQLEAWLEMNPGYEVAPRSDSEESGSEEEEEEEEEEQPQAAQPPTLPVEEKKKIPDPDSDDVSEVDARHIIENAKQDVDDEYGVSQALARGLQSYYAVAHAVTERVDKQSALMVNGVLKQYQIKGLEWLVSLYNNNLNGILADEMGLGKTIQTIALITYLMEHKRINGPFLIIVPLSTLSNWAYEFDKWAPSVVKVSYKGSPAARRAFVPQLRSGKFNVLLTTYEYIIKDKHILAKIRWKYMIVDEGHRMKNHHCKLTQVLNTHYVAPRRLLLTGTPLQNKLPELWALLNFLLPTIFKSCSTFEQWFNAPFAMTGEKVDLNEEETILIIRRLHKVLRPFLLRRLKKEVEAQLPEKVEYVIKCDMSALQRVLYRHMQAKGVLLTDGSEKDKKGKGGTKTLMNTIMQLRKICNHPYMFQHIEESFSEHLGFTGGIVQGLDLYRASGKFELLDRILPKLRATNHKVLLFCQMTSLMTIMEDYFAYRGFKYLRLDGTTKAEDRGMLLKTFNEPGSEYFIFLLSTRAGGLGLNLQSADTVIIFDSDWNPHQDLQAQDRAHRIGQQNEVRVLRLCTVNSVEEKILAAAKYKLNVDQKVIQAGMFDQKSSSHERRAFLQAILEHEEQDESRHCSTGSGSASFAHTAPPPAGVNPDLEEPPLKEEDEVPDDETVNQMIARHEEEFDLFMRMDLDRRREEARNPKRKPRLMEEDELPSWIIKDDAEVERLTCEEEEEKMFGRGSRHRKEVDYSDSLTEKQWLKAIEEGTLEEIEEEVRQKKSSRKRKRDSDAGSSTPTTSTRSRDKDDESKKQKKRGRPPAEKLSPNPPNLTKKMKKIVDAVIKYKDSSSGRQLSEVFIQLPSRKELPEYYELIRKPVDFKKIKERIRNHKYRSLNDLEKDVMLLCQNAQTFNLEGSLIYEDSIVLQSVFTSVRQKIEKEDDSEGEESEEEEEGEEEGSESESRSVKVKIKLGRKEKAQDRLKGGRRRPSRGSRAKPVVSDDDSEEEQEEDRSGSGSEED

Consider `Cc1ncsc1-c1ccc([C@H](C)NC(=O)[C@@H]2C[C@@H](O)CN2C(=O)[C@@H](c2cc(OCCN3CC(O)C(N4CCN5c6cc(-c7ccccc7O)nnc6NC[C@H]5C4)C3)no2)C(C)C)cc1` (stereo partly drawn) [Example 93, (2S,4R)-4-hydroxy-1-((2R)-2-(3-(2-(3-hydroxy-4-((S)-2-(2-hydroxyphenyl)-5,6,6a,7,9,10-hexahydro-8H-pyrazino[1′,2′:4,5]pyrazino[2,3-c]pyridazin-8-yl)pyrrolidin-1-yl)ethoxy)isoxazol-5-yl)-3-methylbutanoyl)-N-((S)-1-(4-(4-methylthiazol-5-yl)phenyl)ethyl)pyrrolidine-2-carboxamide], for which, at SMARCA4, the DC50 is under 100 nM and the Dmax is over 75%. On SMARCA2, the DC50 was under 100 nM and the Dmax is over 75%.

In the case of `Cc1ncsc1-c1ccc([C@H](C)NC(=O)[C@@H]2C[C@@H](O)CN2C(=O)[C@@H](c2cc(OCCN3CCC(N4CCN5c6cc(-c7ccccc7O)nnc6NC[C@H]5C4)C(O)C3)no2)C(C)C)cc1` (stereo partly drawn) [Example 94, (2S,4R)-4-hydroxy-1-((2R)-2-(3-(2-(3-hydroxy-4-((S)-2-(2-hydroxyphenyl)-5,6,6a,7,9,10-hexahydro-8H-pyrazino[1′,2′:4,5]pyrazino[2,3-c]pyridazin-8-yl)piperidin-1-yl)ethoxy)isoxazol-5-yl)-3-methylbutanoyl)-N-((S)-1-(4-(4-methylthiazol-5-yl)phenyl)ethyl)pyrrolidine-2-carboxamide], the DC50 on SMARCA4 and on SMARCA2 was under 100 nM throughout. Also, the Dmax on SMARCA4 and at SMARCA2 was over 75% in each case.

For the molecule `Cc1ncsc1-c1ccc([C@H](C)NC(=O)[C@@H]2C[C@@H](O)CN2C(=O)[C@@H](c2cc(OCCN3CCN4c5cc(-c6ccccc6O)nnc5NC(C)C4C3)no2)C(C)C)cc1` (stereo partly drawn) [Example 95, (2S,4R)-4-hydroxy-1-((2R)-2-(3-(2-(2-(2-hydroxyphenyl)-6-methyl-5,6,6a,7,9,10-hexahydro-8H-pyrazino[1′,2′:4,5]pyrazino[2,3-c]pyridazin-8-yl)ethoxy)isoxazol-5-yl)-3-methylbutanoyl)-N-((S)-1-(4-(4-methylthiazol-5-yl)phenyl)ethyl)pyrrolidine-2-carboxamide], on SMARCA4, the DC50 was under 100 nM and the Dmax was over 75%. On SMARCA2, the DC50 is under 100 nM and the Dmax was over 75%.

In the case of `Cc1ncsc1-c1ccc([C@H](C)NC(=O)[C@@H]2C[C@@H](O)CN2C(=O)[C@@H](c2cc(OCCN3CCC(N4CCN5c6cc(-c7ccccc7O)nnc6NC(C)C5C4)CC3)no2)C(C)C)cc1` (stereo partly drawn) [Example 96, (2S,4R)-4-hydroxy-1-((2R)-2-(3-(2-(4-(2-(2-hydroxyphenyl)-6-methyl-5,6,6a,7,9,10-hexahydro-8H-pyrazino[1′,2′:4,5]pyrazino[2,3-c]pyridazin-8-yl)piperidin-1-yl)ethoxy)isoxazol-5-yl)-3-methylbutanoyl)-N-((S)-1-(4-(4-methylthiazol-5-yl)phenyl)ethyl)pyrrolidine-2-carboxamide], on SMARCA4, the DC50 is under 100 nM and the Dmax is over 75%. Besides, on SMARCA2, the DC50 is under 100 nM and the Dmax was over 75%.

Turning to `Cc1ncsc1-c1ccc([C@H](C)NC(=O)[C@@H]2C[C@@H](O)CN2C(=O)[C@@H](c2cc(O[C@@H](C)CN3CCC(N4CCN5c6cc(-c7ccccc7O)nnc6NC(C)C5C4)CC3)no2)C(C)C)cc1` (stereo partly drawn) [Example 97, (2S,4R)-4-hydroxy-1-((2R)-2-(3-(((2S)-1-(4-(2-(2-hydroxyphenyl)-6-methyl-5,6,6a,7,9,10-hexahydro-8H-pyrazino[1′,2′:4,5]pyrazino[2,3-c]pyridazin-8-yl)piperidin-1-yl)propan-2-yl)oxy)isoxazol-5-yl)-3-methylbutanoyl)-N-((S)-1-(4-(4-methylthiazol-5-yl)phenyl)ethyl)pyrrolidine-2-carboxamide], the 50% degradation concentration (DC50) on SMARCA4 and at SMARCA2 was under 100 nM each time. The Dmax on SMARCA4 and at SMARCA2 was over 75% throughout.

As for `Cc1ncsc1-c1ccc([C@H](C)NC(=O)[C@@H]2C[C@@H](O)CN2C(=O)[C@@H](c2cc(OCCN3CCC(C(=O)N4CCN5c6cc(-c7ccccc7O)nnc6NC[C@H]5C4)CC3)no2)C(C)C)cc1` [Example 98, (2S,4R)-4-hydroxy-1-((R)-2-(3-(2-(4-((S)-2-(2-hydroxyphenyl)-6,6a,7,8,9,10-hexahydro-5H-pyrazino[1′,2′:4,5]pyrazino[2,3-c]pyridazine-8-carbonyl)piperidin-1-yl)ethoxy)isoxazol-5-yl)-3-methylbutanoyl)-N-((S)-1-(4-(4-methylthiazol-5-yl)phenyl)ethyl)pyrrolidine-2-carboxamide], at SMARCA4, the DC50 is under 100 nM and the Dmax is over 75%. In addition, on SMARCA2, the half-maximal degradation concentration (DC50) was under 100 nM and the Dmax was over 75%.

For the molecule `Cc1ncsc1-c1ccc([C@H](C)NC(=O)[C@@H]2C[C@@H](O)CN2C(=O)[C@@H](c2cc(OCCN3CCC(N(C)C4CCN5c6cc(-c7ccccc7O)nnc6NCC5C4)CC3)no2)C(C)C)cc1` (stereo partly drawn) [Example 99, (2S,4R)-4-hydroxy-1-((2R)-2-(3-(2-(4-((2-(2-hydroxyphenyl)-6,6a,7,8,9,10-hexahydro-5H-pyrido[1′,2′:4,5]pyrazino[2,3-c]pyridazin-8-yl)(methyl)amino)piperidin-1-yl)ethoxy)isoxazol-5-yl)-3-methylbutanoyl)-N-((S)-1-(4-(4-methylthiazol-5-yl)phenyl)ethyl)pyrrolidine-2-carboxamide], at SMARCA4, the DC50 is under 100 nM and the Dmax was over 75%. On SMARCA2, the DC50 is under 100 nM and the Dmax is over 75%.

Consider `Cc1ncsc1-c1ccc([C@H](C)NC(=O)[C@@H]2C[C@@H](O)CN2C(=O)[C@@H](c2cc(O[C@@H](C)CN3CCC(CN4CCN5c6cc(-c7ccccc7O)nnc6NC[C@H]5C4)CC3)no2)C(C)C)cc1` [Example 100, (2S,4R)-4-hydroxy-1-((R)-2-(3-(((S)-1-(4-(((S)-2-(2-hydroxyphenyl)-5,6,6a,7,9,10-hexahydro-8H-pyrazino[1′,2′:4,5]pyrazino[2,3-c]pyridazin-8-yl)methyl)piperidin-1-yl)propan-2-yl)oxy)isoxazol-5-yl)-3-methylbutanoyl)-N-((S)-1-(4-(4-methylthiazol-5-yl)phenyl)ethyl)pyrrolidine-2-carboxamide], for which, at SMARCA4, the DC50 is under 100 nM and the Dmax is over 75%. In addition, on SMARCA2, the half-maximal degradation concentration (DC50) is under 100 nM and the Dmax was over 75%.

Regarding `Cc1ncsc1-c1ccc([C@H](C)NC(=O)[C@@H]2C[C@@H](O)CN2C(=O)[C@@H](c2cc(OCCN3CCC(CN4C[C@@H]5CNc6nnc(-c7ccccc7O)cc6N5C[C@@H]4C)CC3)no2)C(C)C)cc1` [Example 101, (2S,4R)-4-hydroxy-1-((R)-2-(3-(2-(4-(((6aS,9S)-2-(2-hydroxyphenyl)-9-methyl-5,6,6a,7,9,10-hexahydro-8H-pyrazino[1′,2′:4,5]pyrazino[2,3-c]pyridazin-8-yl)methyl)piperidin-1-yl)ethoxy)isoxazol-5-yl)-3-methylbutanoyl)-N-((S)-1-(4-(4-methylthiazol-5-yl)phenyl)ethyl)pyrrolidine-2-carboxamide], on SMARCA4, the half-maximal degradation concentration (DC50) is under 100 nM and the Dmax was over 75%. On SMARCA2, the DC50 is under 100 nM and the Dmax was over 75%.

On to `Cc1ncsc1-c1ccc([C@H](C)NC(=O)[C@@H]2C[C@@H](O)CN2C(=O)[C@@H](c2cc(OCCN3CCC(N4C[C@@H]5CNc6nnc(-c7ccccc7O)cc6N5C[C@@H]4C)C3)no2)C(C)C)cc1` (stereo partly drawn) [Example 102, (2S,4R)-4-hydroxy-1-((2R)-2-(3-(2-(3-((6aS,9S)-2-(2-hydroxyphenyl)-9-methyl-5,6,6a,7,9,10-hexahydro-8H-pyrazino[1′,2′:4,5]pyrazino[2,3-c]pyridazin-8-yl)pyrrolidin-1-yl)ethoxy)isoxazol-5-yl)-3-methylbutanoyl)-N-((S)-1-(4-(4-methylthiazol-5-yl)phenyl)ethyl)pyrrolidine-2-carboxamide], for which, on SMARCA4, the DC50 was under 100 nM and the Dmax is over 75%. Also, on SMARCA2, the half-maximal degradation concentration (DC50) is under 100 nM and the Dmax is over 75%.
